Measured values taken from article PMC10747733, “N-Substituted 2-(Benzenosulfonyl)-1-Carbotioamide Derivatives Exert Antimicrobial and Cytotoxic Effects via Aldehyde Dehydrogenase Pathway: Synthesis, In Silico and In Vitro Studies” (Pharmaceuticals, 2023).
Values after ≈ are worked out from the molar mass of the structure shown.

Assays:
[1] = system: 769-P (renal cell carcinoma); assay: MTT antiproliferative activity assay; type: cell-based, human; conditions: for decrease in viability: 769-P, 1 µM; for TI after 24h / TI after 48h: IC50 WS1 / IC50 769-P
Method: (§1) Cancer cell lines originating from different organs, i.e., AGS (stomach—gastric adenocarcinoma), HepG2 (hepatocellular carcinoma), Du145, PC3 (prostate cancer), 769-P (renal cell carcinoma) and physiology cell line WS1 (fibroblasts), were purchased from ATCC. The cell cultures were carried out in an appropriate medium (DMEM or MEM) containing 10% heat-inactivated FBS with penicillin (100 U/mL) and streptomycin (100 U/mL). The cells were kept in a humidified incubator at 37 °C and 5% CO2 and passaged three times before experimenting.
(§2) The antiproliferative properties test for each cancer line was performed in 96-well plates, in which cells with a density of 2 × 10^4 were seeded in 100 µL of medium containing 10% FBS. After 24 h of allowing the cells to attach, the wells were washed with DPBS (Dulbecco’s phosphate-buffered saline) solution and the cells were incubated in fresh medium w/o FBS containing 1 µM, 10 µM, 50 µM, 200 µM or 500 µM of the tested compounds for 24 and 48 h. All substances were first dissolved in DMSO to prepare stock solutions that were then diluted in the medium to obtain a maximum of 0.1% w/v DMSO in the final solution. Each concentration was tested in triplicate. DMSO at a concentration of 0.1% in the medium was also used as a negative control. The antiproliferative activity of the compounds was tested using the MTT test. After each incubation time, the medium containing the test compounds and the negative control was removed, the cells were washed with DPBS solution, and then 100 µL of FBS-free and antibiotic-free fresh medium containing 0.5 mg/mL MTT was added to each well. The plates were incubated for 3 h in an incubator at 37 °C and 5% CO2. After incubation, the medium was removed, the cells were washed with 100 µL of PBS, and 100 µL of DMSO was added to each well to dissolve the purple formazan. The plate was shaken for 3 min and the absorbance was read at 570 nm (BioTek Synergy H1 microplate reader). Cell viability was calculated from the mean of the OD readings. Based on the dose–response curve, IC50 values were calculated (MS Excel). […] Therapeutic index (TI) results were calculated as the ratio of the IC50 of physiological cells to the IC50 of tumor cells.

PC3 (prostate cancer) = assay: MTT antiproliferative activity assay; type: cell-based, human; conditions: for TI after 24h / TI after 48h: IC50 WS1 / IC50 PC3
Method: as §1, §2

WS1 (fibroblasts) = assay: MTT antiproliferative activity assay; type: cell-based, human; conditions: for concentration at which a statistically significant decrease in viability was observed: tested 1–500 µM
Method: as §1, §2

[2] = system: AGS (gastric adenocarcinoma); assay: MTT antiproliferative activity assay; type: cell-based, human; conditions: for decrease in viability: AGS; for TI after 24h / TI after 48h: IC50 WS1 / IC50 AGS
Method: as §1, §2

Du145 (prostate cancer) = assay: MTT antiproliferative activity assay; type: cell-based, human; conditions: for TI after 24h / TI after 48h: IC50 WS1 / IC50 DU145
Method: as §1, §2

[3] = system: HepG2 (hepatocellular carcinoma); assay: MTT antiproliferative activity assay; type: cell-based, human; conditions: for TI after 24h / TI after 48h: IC50 WS1 / IC50 HepG2
Method: as §1, §2

[4] = system: Candida parapsilosis ATCC 22019; assay: Broth microdilution antimicrobial activity; type: cell-based; conditions: for MFC / MIC: Lodderomyces parapsilosis; for MFC: ATCC22019, read-out: MFC; for MIC: ATCC22019, read-out: MIC
Description: (§3) Reference strains of microorganisms that came from American Type Culture Collection (ATCC) (Manassas, VA, USA) were used for this study. The representative Gram-positive bacteria were as follows: Staphylococcus aureus ATCC 25923, Staphylococcus aureus ATCC 29213, Staphylococcus aureus ATCC 43300, Staphylococcus epidermidis ATCC 12228, Enterococcus faecalis ATCC 29212, Micrococcus luteus ATCC 10240, Bacillus subtilis ATCC 6633 and Bacillus cereus ATCC 10876. While, those of Gram-negative bacteria were as follows: Bordetella bronchiseptica ATCC 4617, Escherichia coli ATCC 25922, Klebsiella pneumoniae ATCC 13883, Proteus mirabilis ATCC 12453, Salmonella Typhimurium ATCC 14028 and Pseudomonas aeruginosa ATCC 9027. Moreover, the following fungi belonging to yeasts were used: Candida albicans ATCC 10231, Candida albicans ATCC 2091, Candida parapsilosis ATCC 22019, Candida glabrata ATCC 90030 and Candida krusei ATCC 14243.
(§4) The new compounds WZ1–WZ4 were assayed for both antibacterial and antifungal activity using the broth microdilution method in accordance with the European Committee on Antimicrobial Susceptibility Testing (EUCAST) and Clinical and Laboratory Standards Institute (CLSI) guidelines. The microorganisms were grown at 35 °C for 18–24 h on appropriate media (nutrient agar and Sabouraud for bacteria and fungi, respectively) (BioMaxima S.A., Lublin, Poland). Next, microbial suspensions with an optical density of 0.5 McFarland standard scale (in sterile 0.85% NaCl) were prepared. In turn, the tested compounds were initially diluted at 50 mg/mL in dimethyl sulfoxide (DMSO) and the broth microdilution method was used to assess their minimum inhibitory concentrations (MICs). For these studies, selective broth Mueller-Hinton (MH) (BioMaxima S.A., Lublin, Poland) and RPMI (Roswell Park Memorial Institute) 1640 with MOPS (3-(N-Morpholino)propanesulfonic acid) (Sigma-Aldrich Chemicals, St. Louis, MO, USA) were used for bacteria and fungi, respectively. The antimicrobial effect of compounds WZ1–WZ4 was determined in the concentration range from 2000 to 0.98 µg/mL.
(§5) Then, the microbial suspensions were introduced into each well of the microplate and incubated for 18–24 h at 35 °C. […] The reference drugs ciprofloxacin or vancomycin (against bacteria) and nystatin (against fungi) (Sigma-Aldrich Chemicals, St. Louis, MO, USA) were also used. Next, the values of the minimum bactericidal concentration (MBC) and minimum fungicidal concentration (MFC) of WZ1–WZ4 were assessed. For this purpose, the cultures from each MIC determination well were transferred to a suitable solid medium and incubated under appropriate conditions. The lowest concentrations of compounds without microbial growth were read as MBC or MFC. The studies were performed in triplicate and representative data were gathered.
(§6) In turn, the MBC/MIC or MFC/MIC ratios were used to assess bactericidal/fungicidal (MBC/MIC or MFC/MIC ≤ 4) and bacteriostatic/fungistatic (MBC/MIC or MFC/MIC > 4) effect of these compounds [93].

[5] = system: Bacillus subtilis ATCC 6633; assay: Broth microdilution antimicrobial activity; type: cell-based; conditions: for MBC / MIC: ATCC6633
Description: as §3, §4, §5, §6

Compound | decrease in viability ([1]; 24 h) | decrease in viability ([1]; 48 h) | TI after 24h ([1]; 24 h) | TI after 48h ([1]; 48 h) | TI after 24h (PC3 (prostate cancer); 24 h) | TI after 48h (PC3 (prostate cancer); 48 h) | concentration at which a statistically significant decrease in viability was observed (WS1 (fibroblasts); 24 h) | decrease in viability ([2]; 24 h, 1 µM) | TI after 24h ([2]; 24 h) | TI after 48h ([2]; 48 h) | TI after 24h (Du145 (prostate cancer); 24 h) | TI after 48h (Du145 (prostate cancer); 48 h) | TI after 24h ([3]; 24 h) | TI after 48h ([3]; 48 h) | MFC/MIC [4] | MFC [4] [mg/L] | MIC [4] [mg/L] | MBC/MIC [5] | MBC [5] [mg/L] | MIC [5] [mg/L] | further results
O=S(=O)(NNC(=S)NC1CCCCC1)c1ccccc1 [WZ1, 2-(Benzenesulfonyl)-N-Cyclohexylhydrazine-1-Carbothioamide] | ~ 11% | ~ 15% | 22.712 | 7.757 | 18.426 | 1.521 | 200 µM | ~ 16% | 14.043 | 0.952 | 16.001 | 0.170 | 0.003 | 7.442 | > 1 | > 2000 | > 2000 | > 4 | > 2000 | 500 (≈ 1.6 mM) | decrease in viability (PC3 (prostate cancer); PC3, 24 h, 50 µM): ~ 11%; concentration at which a statistically significant decrease in viability was observed (PC3 (prostate cancer); PC3, 48 h, tested 1–500 µM): 10 µM; concentration at which a statistically significant decrease in viability was observed (WS1 (fibroblasts); 48 h): 200 µM; decrease in viability ([2]; 48 h, 50 µM): ~ 6%; decrease in viability (Du145 (prostate cancer); Du145, 24 h, 1 µM): ~ 7%; concentration at which a statistically significant decrease in viability was observed (Du145 (prostate cancer); Du145, 48 h, tested 1–500 µM): 200 µM; decrease in viability ([3]; HepG2, 24 h, 200 µM): ~ 15%; decrease in viability ([3]; HepG2, 48 h, 10 µM): ~ 7%
CCCCNC(=S)NNS(=O)(=O)c1ccccc1 [WZ2, 2-(Benzenesulfonyl)-N-Butylhydrazine-1-Carbothioamide] | ~ 8% | ~ 10% | 753,464,970.626 | 67,951.475 | 289,230,463.397 | 224,184.286 | no reduction in viability | ~ 8% | 1,905,977,431.260 | 0.368 | 2,352,384.152 | 28.982 | 205,540,220.291 | 15,880.957 | > 1 | > 2000 | 2000 (≈ 6.96 mM) | > 2 | > 2000 | 1000 (≈ 3.48 mM) | viability (reduced to) (PC3 (prostate cancer); PC3, 24 h, 200 µM): ~ 82%; viability (reduced to) (PC3 (prostate cancer); PC3, 48 h, 50 µM): ~ 88%; decrease in viability (WS1 (fibroblasts); 48 h, 200 µM): ~ 17%; decrease in viability (WS1 (fibroblasts); 48 h, 500 µM): ~ 23%; decrease in viability ([2]; 48 h, 1 µM): ~ 6%; viability at 50 µM (Du145 (prostate cancer); Homo sapiens, DU-145, Du145, 24 h, 50 µM, read-out: viability (dropped to)): ~80%; viability at 1 µM (Du145 (prostate cancer); Homo sapiens, DU-145, Du145, 48 h, 1 µM, read-out: viability (dropped to)): ~92%; decrease in viability ([3]; HepG2, 24 h, 500 µM): ~ 22%; viability (decreased to) ([3]; HepG2, 48 h, 1 µM): ~ 82%
